# System: polycystin-2L1
# Format: cell-based
# Details: for Effect of extracellular reducing agents on polycystin-2L1 current: WT polycystin-2L1
# Protocol: Electrophysiology. Ciliary ion currents were recorded using borosilicate glass electrodes polished to resistances of 14-22 MΩ using the cilium patch method previously described^32. Whole cell electrodes used to measure poly cystin-2L1 currents were fire polished to 1.5-4 MΩ resistances. Unless otherwise stated, whole cilia ionic currents were recorded in symmetrical [Na^+]. The pipette standard internal solution contained (in mM): 90 NaMES, 10 NaCl, 10 HEPES, 10 Na4-BAPTA (Glycine, N, N′-[1,2-ethanediylbis(oxy-2,1-phenylene)]bis[N-(carboxymethyl)]-,tetrasodium); pH was adjusted to 7.3 using NaOH. Standard bath solution contained 140 NaCl, 10 HEPES, 1.8 CaCl2); pH 7.4. All solutions were osmotically balanced to 295 (±6) mOsm with mannitol. Extracellular solutions containing TCEP and GSH were used within six hours of formulation. Data were collected using an Axopatch 200B patch clamp amplifier, Digidata 1440A, and pClamp 10 software. Whole-cilium and excised patch currents were digitized at 25 kHz and low-pass filtered at 10 kHz. In the whole cilium configuration, the holding potential was −60 mV and then depolarized using a 400 ms voltage ramp from −100 mV to 100 mV. The whole cell recordings of polycystin-2L1 currents were either activated by the same ramp protocol or by 100 ms depolarizations to 100 mV from a −100 mV holding potential. External conditions were controlled using a Warner Perfusion Fast-Step (SF-77B) system in which the patched cilia and electrode were held in the perfusate stream. Data were analyzed by Igor Pro 7.00 (Wavemetrics, Lake Oswego, Oreg.). The polycystin-2 open probability and the polycystin-2L1 tail current-voltage relationships were fit to a Boltzmann function, f(x)=1/(1+exp[V−V1/2]/k) to estimate voltage of half-maximal activation of current (V1/2).
SMILES,Effect of extracellular reducing agents on polycystin-2L1 current,"Block of polycystin-2L1 currents by trivalent ions (10 μM, plasma membrane of HEK cells)"
"N[C@@H](CCC(=O)N[C@@H](CS)C(=O)NCC(=O)O)C(=O)O [GSH, reduced glutathione]",near complete loss of current,
"O=C(O)CCP(CCC(=O)O)CCC(=O)O [TCEP, tris-2-carboxyethyl phosphine]",near complete loss of current,
[Gd] [gadolinium],,blocked
